This is an account of results in patent publication US20090232762A1, “COMPOSITIONS FOR DELIVERY OF THERAPEUTIC AGENTS” (priority 2008, published 2009).

For one data set, the target named is T1, yCD-His (Saccharomyces cerevisiae, UniProt Q12178).
T1 construct: The resulting 474 bp gene was subcloned into pET-15b; made in house; host or cells: E. coli BL21(DE3)
Kind of data set: Enzyme activity of yCD-His (substrate turnover). It counts as biochemical, S. cerevisiae. The protocol: (§1) The S. cerevisiae yeast cytosine deaminase (yCD) enzyme was cloned and expressed. The resulting 474 bp gene was subcloned into pET-15b to facilitate purification of the protein via a fused histidine tag and transformed into competent BL21(DE3) cells for protein expression. An estimate of about 25-30 mg of pure yCD-His was collected from a 1-liter culture. Thrombin cleavage of the histidine tag on yCD-His was achieved by incubating the protein for 2 hours at 23° C. in thrombin cleavage buffer. Enzyme activity characteristics for yCD and yCD-His was investigated using both the prodrug 5FC and the enzyme's natural substrate, the DNA base cytosine. Five-FC turnover rates remained within 10^5 M^−1·s^−1 (Table 1) for both proteins (see E. Kievit et al. Cancer Res. 2000, 60:6649-6655). The diffusion controlled limit for extremely efficient enzymes and their substrates in solution is in the range 10^8-10^9 M^−1·s^−1, therefore it was concluded that yCD was a very efficient pretargeting enzyme for catalyzing 5FC to 5FU conversion, especially applicable to GDEPT.

For data set [1] the following is noted: cited from earlier work; for LogP (Drug): drug named.
For a further data set, the target named is T2, yCD (Saccharomyces cerevisiae, UniProt Q12178).
T2 construct: The resulting 474 bp gene was subcloned into pET-15b; histidine tag (pET-15b) (N, cleaved yes); made in house; host or cells: E. coli BL21(DE3)
Kind of data set: Enzyme activity of yCD (His tag cleaved). It counts as biochemical, S. cerevisiae. On the procedure:
as §1

Data set [2] deals with MDA-MB-231. Kind of data set: 5FU toxicity in MDA-MB-231 (drug concentration vs. % cell death, Hill-Slope fit). It counts as cell-based. The settings on record: Homo sapiens; MDA-MB-231, % cell death, Hill-Slope curve fit.
Data set [3] deals with MDA-MB-231. The following applies: reported on the National Cancer Institute website; cited from earlier work.

Read-outs that look alike come from different tables or passages of the source.

T1 sequence (Q12178 whole entry): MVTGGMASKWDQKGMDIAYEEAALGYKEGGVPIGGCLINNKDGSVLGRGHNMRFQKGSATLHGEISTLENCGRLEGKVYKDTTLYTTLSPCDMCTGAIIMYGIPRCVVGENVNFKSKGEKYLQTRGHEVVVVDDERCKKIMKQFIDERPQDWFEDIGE
T2 sequence (Q12178 whole entry): as above

A word on the kcat: it is the number of substrate molecules converted per active site and unit of time at saturation. For `Nc1nc(=O)[nH]cc1F` [5-FC, 5-fluorocytosine], the kcat at yCD-His turned out to be 315 s⁻¹; at yCD, 448 s⁻¹. Moreover, the “LogP (Prodrug)” value in data set [1] (prodrug column) is −1.79.

As a reminder, the IC50 is the midpoint of a concentration-inhibition curve. For `O=c1[nH]cc(F)c(=O)[nH]1` [5-FU, 5-fluorouracil], the IC50 in the data set on MDA-MB-231 [2] is 2900 nM; in the data set on MDA-MB-231 [3], 900 nM. The “LogP (Drug)” value in data set [1] was −2.17.

In the case of `Nc1cc[nH]c(=O)n1` [Cytosine, cytosine], the kcat at yCD-His was 607 s⁻¹; on yCD, 741 s⁻¹.

Regarding `COc1cccc2c1C(=O)c1c(O)c3c(c(O)c1C2=O)C[C@@](O)(C(=O)CO)C[C@@H]3O[C@H]1C[C@H](N)[C@H](O)[C@H](C)O1` [DOX, doxorubicin], in data set [1], the “LogP (Drug)” value is listed as “+0.36”.

As to `CCc1c2c(nc3ccc(O)cc13)-c1cc3c(c(=O)n1C2)COC(=O)[C@]3(O)CC` [SN-38, 7-ethyl-10-hydroxycamptothecin], in data set [1], the “LogP (Drug)” value is recorded as “+2.02”.
